Experiments:
Format in all cases: functional
[1] = tested on: Escherichia coli; assay: Antibacterial activity against multidrug-resistant Escherichia coli 5364 after 16 to 20 hrs by agar dilution method
[2] = tested on: Escherichia coli; assay: Antibacterial activity against multidrug-resistant Escherichia coli 5353 after 16 to 20 hrs by agar dilution method
[3] = tested on: Pseudomonas aeruginosa; assay: Antibacterial activity against multidrug-resistant Pseudomonas aeruginosa 5510 after 16 to 20 hrs by agar dilution method
[4] = tested on: Escherichia coli; assay: Antibacterial activity against multidrug-resistant Escherichia coli 5539 after 16 to 20 hrs by agar dilution method
[5] = tested on: Pseudomonas aeruginosa; assay: Antibacterial activity against multidrug-resistant Pseudomonas aeruginosa 5298 after 16 to 20 hrs by agar dilution method
[6] = tested on: Pseudomonas aeruginosa; assay: Antibacterial activity against multidrug-resistant Pseudomonas aeruginosa 5313 after 16 to 20 hrs by agar dilution method
[7] = tested on: Pseudomonas aeruginosa; assay: Antibacterial activity against multidrug-resistant Pseudomonas aeruginosa 5215 after 16 to 20 hrs by agar dilution method
[8] = tested on: Escherichia coli; assay: Antibacterial activity against multidrug-resistant Escherichia coli 5237 after 16 to 20 hrs by agar dilution method
[9] = tested on: Pseudomonas aeruginosa; assay: Antibacterial activity against multidrug-resistant Pseudomonas aeruginosa 5585 after 16 to 20 hrs by agar dilution method

Measured: MIC

CCC(C)CCC(O)CC(=O)N[C@H](CCN)C(=O)N[C@H]1CCNC(=O)[C@H](CC(C)C)NC(=O)[C@H](CCN)NC(=O)[C@H](CCN)NC(=O)[C@@H](Cc2ccccc2)NC(=O)[C@H](CC(C)C)NC(=O)[C@H](CCN)NC1 (some centres undefined)
2 to 4 mg/L: all assays above

— ChEMBL document CHEMBL4219042, “Advances in macrocyclic peptide-based antibiotics” (2018)
